A melting point compilation (Tetko et al.; mined from patent text by program, amines drawn as free bases though some values may be those of a salt)

melting point [°C]	Structure (SMILES)
200	O=c1[nH]c2ccc(CCN3CCN(c4ncnc5ccccc45)CC3)cc2o1
187 to 188	CN(C)C(=O)C1CCCN(c2cc3ccccc3c(=O)[nH]2)C1 (configuration not stated)
129 to 132	CON=C(Cn1c(=O)ccc2ccccc21)c1ccc(C)cc1
204 to 207	COC(=O)c1cc(N=Nc2ccc(S(=O)(=O)Nc3ccccn3)cc2)ccc1OC(C)=O
101 to 103	O=C(O)Cc1cccc(C(=O)c2ccccc2)c1
138	COC(=O)[C@@H]1CCCN1S(=O)(=O)c1ccc(Cl)c(COc2cccc3c(C)cc(C)nc23)c1Cl
220 to 221	CC(C)(C)C(NC(=O)COc1ccccc1)Nc1c(Nc2cccnc2Cl)c(=O)c1=O (configuration not stated)
114 to 115	Fc1ccc(-c2cc(C(S)(C(F)(F)F)C(F)(F)F)[nH]c2-c2ccc(F)cc2)cc1
114	OC(c1ccccc1)(c1ccc(Oc2ccccc2)cc1)c1ccccn1 (configuration not stated)
48 to 55	CC(=O)OCCNc1ccc(Cl)cc1C(=O)c1ccccc1F
210 to 212	O=C(CN1CCC(Cc2ccccc2)CC1)Nc1ccc2[nH]c(=O)oc2c1
295	CC(C)(C)NCP(=O)(O)O
246	COc1ccc(N2C(=O)C(Oc3ccccc3)C2c2ccc(C(=O)O)cc2)cc1 (configuration not stated)
308 to 309	Nc1c(F)c(N2CCC(n3ccnn3)C2)c(F)c2c1c(=O)c(C(=O)O)cn2-c1ccc(F)cc1F (configuration not stated)
189 to 196	CC1(c2ccc(C#N)cc2)Cc2cc(O)c(Cl)c(Cl)c2C1=O (configuration not stated)
141 to 143	O=C1c2ccccc2C(=O)N1Cc1cnccn1
150	O=[N+]([O-])c1c(NCCCO)cc(NCCCO)cc1NCCCO
115 to 116	CCCOc1ccccc1-c1nc2c(CCC)nn(C)c2c(=O)[nH]1
104 to 106	O=C(OCc1ccccc1)C1C(=O)N(Cc2ccc(Cl)c(Cl)c2)C(=O)c2cccn21 (configuration not stated)
99 to 100	CC(=O)OCc1nn(C(C)=O)c2cccc(OCc3ccccc3)c12
156 to 158	CCOC(=O)c1ncc2[nH]c3cccc(Oc4ccc(Cl)cn4)c3c2c1COC
65	COCCn1nc(C(=O)NCc2ccc(OC(C)(C)C(=O)O)c(C)c2)cc1-c1ccc(C(C)(C)C)cc1
76 to 77	CC(=O)c1ccc(C2=CC3CCCC3C2=O)cc1 (configuration not stated)

melting point [°C]	Structure (SMILES)
176 to 179	CCCCCCCCNC1=NS(=O)(=O)c2cnccc2N1
67 to 70	Cc1cc(NC(=O)NC(=O)c2ccccc2N2CCOCC2)ccc1Oc1ncc(Br)cn1
239 to 240	COc1cc(C#N)ccc1-c1ccnc(-c2ccc(C#N)cc2)n1
348 to 349	O=C(O)c1ccc(C=Cc2ccc(-c3cc4ccccc4o3)cc2)cc1
118	O=[N+]([O-])c1ccc(C=Cc2ccc(OCCCCCCO)cc2)cc1
85 to 86	CCOCCCn1cnc(-c2ccc(F)cc2)c1-c1ccncc1
173 to 177	CN1CC(O)N(c2cc(C(C)(C)C)on2)C1=O (configuration not stated)
> 300	CCS(=O)(=O)N(C)c1c(Cl)c(Cl)cc2[nH]c(=O)c(=O)[nH]c12
195 to 196	CCOC(=O)CCCCC1CC(n2c3ccccc3c3ccccc32)c2ccccc2N1C(=O)c1ccc(OC)c(OC)c1 (configuration not stated)
50 to 52	CS(=O)(=O)C1CCCC1Br (configuration not stated)
204 to 205	CN1CCC(=C2c3ccccc3C(CO)=C(CO)c3ccccc32)CC1
> 330	O=C1Cc2c([nH]c3ccccc23)-c2ncccc2N1
132 to 133	Cc1c(NCCCNCC(O)COc2ccccc2)n(C)c(=O)n(C)c1=O (configuration not stated)
186 to 188	COC(=O)Nc1cc(=O)[nH]c(N)n1
210 to 211	O=C(CCCCc1ccccc1)NC(C(=O)Nc1n[nH]c(=S)s1)c1ccccc1 (configuration not stated)
231 to 233	COC(=O)Nc1nc2cc(S(=O)CC3(C)CC3(Cl)Cl)ccc2[nH]1 (configuration not stated)
326 to 330	CC(C)c1cc2nc(N)[nH]c(=O)c2cc1-c1ccc(Cl)cc1
202 to 204	N#Cc1cnc2sc(-c3ccccc3)cc2c1Cl
113 to 115	CCSC1=NCC(=O)N1c1cc(Cl)ccc1OC
149 to 151	CC1(C)SC(c2ccncc2)NC1C(=O)O (configuration not stated)
77 to 79	OCCCNC(Cn1ccnc1)c1ccc(Cl)cc1Cl (configuration not stated)
129 to 135	ClC1=Nc2cc(Cl)ccc2Cn2cccc21
67	CN(C)Cc1ccc(CSCCNc2[nH]ccc2[N+](=O)[O-])o1

melting point [°C]	Structure (SMILES)
117 to 120	CCCCc1nn(-c2cc(NC(=O)c3ccccc3)ccc2C(F)(F)F)c(=O)n1Cc1ccc(-c2ccccc2S(=O)(=O)NC(=O)OC(C)(C)C)cc1F
192 to 193	Cc1nc(Cn2c(=O)sc3cc(F)c([N+](=O)[O-])cc32)no1
146 to 151	CCC[C@H]1CCC[C@H](N2C(=O)c3ccccc3C2=O)C(=O)N1
129 to 130	COC1(c2cccc(OCc3ccc(-n4ccnc4)cc3)c2)CCOCC1
184 to 185	COc1cc(C)nc(NC(=O)NS(=O)(=O)c2ccsc2C(=O)N2CCCC2=O)n1
138 to 139	CON(c1ccc([N+](=O)[O-])cc1Cl)S(=O)(=O)c1ccc(Cl)c([N+](=O)[O-])c1
116 to 118	O=C1C2CCCCC2(Cl)C(=O)N1c1ccc(Cl)cc1 (configuration not stated)
59 to 60	CCOC(=O)CC(C)Nc1ccc(OC)c(OC)c1 (configuration not stated)
166 to 167	CCCOCCOc1cccc(-c2ccc3c(c2)C=C(C(=O)Nc2ccc(CN(C)C4CCOCC4)cc2)CCS3(=O)=O)c1
135 to 136	O=C(O)c1c(CN2CCC(c3ccccc3)(c3ccccc3)CC2)ncn1Cc1ccc(Cl)cc1
201	CC1=C(C(=O)c2ccc(C(=O)O)cc2)C(=O)C2C=CC=CC2C1=O (configuration not stated)
211 to 212	CNS(=O)(=O)c1cc(S(=O)(=O)NC)c(C(Cl)=C(Cl)Cl)cc1N
149 to 151	CC(C)c1cccc(C(C)C)c1NC(=O)CNC(c1ccccc1)c1cccc2ccccc12 (configuration not stated)
119 to 122	N=C(N)c1ccc2cc(OC(=O)CCCCCNC(=O)OCc3ccccc3)ccc2c1
85 to 86	Cn1nc(Br)c(Br)c1Br
77 to 80	COC(=O)CC(O)CCSc1cc(C(C)(C)C)c(O)c(C(C)(C)C)c1 (configuration not stated)
276	CCOc1cc(-c2cc(C(F)(F)F)n3ncc(C(=O)Nc4nc(C)c(S(=O)(=O)NC(C)(C)CO)s4)c3n2)ccc1C(F)(F)F
185 to 187	CCOCc1nc2c(N)nc3cc(-c4cccc(C(=O)N5CCCC5)c4)cnc3c2n1CC(C)(C)O
136	COc1ccc(C(C)(O)Cn2cc[nH]c2=O)cc1OC1CCCC1 (configuration not stated)
118 to 119	CCOC(=O)c1[nH]c2c(C)ccc(Cl)c2c1C
184 to 188	O=C(Nc1cccc2c(=O)cc(C(=O)O)oc12)c1ccc2c(c1)CC(COCc1ccccc1)O2 (configuration not stated)
97 to 98	CN(C)c1ccc([N+](=O)[O-])c(CN)c1
211 to 213	CN(C)c1ccc(NC(=O)NC2CCCC2)c(C(=O)NCC2CCN(C(c3ccccc3)c3ccccc3)CC2)c1

melting point [°C]	Structure (SMILES)
160	OCc1ccnc2cc(Cl)ccc12
80 to 83	COc1cc2c(cc1O)CN(C(=O)OC(C)(C)C)CC2
232 to 234	NC(=O)c1[nH]c2ccccc2c1-c1ccc(NC(=O)Nc2ccccc2)cc1
192 to 194	CC(C)(C)C(CO)NC(=O)C(CC(=O)O)n1ccc(-c2ccc(-c3ccc(C(N)=O)cc3)cc2)c1 (configuration not stated)
189	OC1CSC(Oc2cc(-c3ccncc3)ccc2Cl)C(O)C1O (configuration not stated)
179 to 180	Cn1ncnc1COc1nn2c(-c3cnccn3)nncc2c1-c1ccccc1F
153 to 154	CCOCCNCc1ccc(C(=O)Nc2nc(-c3ccccc3)c(-c3ccc(=O)n(C(C)C)n3)s2)cc1
231 to 235	O=C(O)c1ccc(NCC=C(c2ccc(Cl)cc2)c2ccc(Cl)cc2)cc1
297 to 299	Cn1cnc2nc(-c3ccc(-c4ccccc4)cc3)nn2c1=S
152 to 155	COC(=O)c1ccc(C(=O)NCc2cc(O)cc(O)c2)cc1Cl
198 to 202	O=c1cc(-c2ccccc2SCc2ccccc2)[nH]c2ccc(Cl)cc12
114 to 115	NS(=O)(=O)c1ccc(-n2nc(C(F)(F)F)cc2OS(=O)(=O)C(F)(F)F)cc1
130 to 131	CCOC(=O)C1=C(C)Nc2ccnc(OC(C)C)c2C1c1cccc(C(F)(F)F)c1 (configuration not stated)
196 to 198	Nc1nc2ccccc2c2c1ncn2CCOCc1ccccn1
208 to 211	CC(C)CN1C(=O)C(C)(C)C(=O)Nc2ccc(C=O)cc21
261 to 263	CS(=O)(=O)Nc1ccc(C#Cc2cnn3c(C(F)(F)F)cc(-c4ccc(C(F)(F)F)cc4)nc23)cn1
228 to 230	COC(=O)Nc1nc(-c2ccccc2)c(-c2nc3ccccc3c(=O)n2-c2ccccc2OC)s1
167 to 168	CC12CCC3c4cc(OCC(F)(F)F)c(O)cc4CCC3C1CCC2O (configuration not stated)
72.8	CCCC(=O)NN=C(C)C1CCC=C(C)O1 (configuration not stated)
134 to 136	CC1(C)CCC(C)(C)c2cc(-c3cc(-c4ccc(C(=O)O)c(O)c4)ccc3-c3ccccc3)ccc21
204 to 206	O=C(Nc1ccc2nc(CN3CCCC3)ccc2c1)C1CCN(c2ccc(Cl)cc2)CC1
138 to 140	O=C(O)CN(Cc1ccccc1)C(=S)CCc1nc2c(F)c(F)cc(F)c2s1

Structure (SMILES)	melting point [°C]
CN(C)C1(c2cccs2)CC=C(c2[nH]c3ccccc3c2CCc2ccncc2)CC1 (configuration not stated)	189 to 193
COc1nsc(NC(=O)CBr)n1	198 to 199
COC(=O)c1ccc(OC(=O)Cl)cc1	52 to 53
CN(C)C1(c2cccs2)CCC(=O)CC1	102 to 103
CC(=O)Nc1cccc(NC(=O)NC2N=C(c3ccccc3F)c3ccccc3N(CC(=O)N3CC4CCC(CC4)C3)C2=O)c1 (racemic)	207 to 215
NC1=Nc2ccc(I)cc2C(c2ccccn2)=NC1	228 to 229
